Reference: patent US20250320211A1, “COMPOUND, COMPOSITION, AND ELECTROPHOTOGRAPHIC PHOTORECEPTOR” (MITSUBISHI CHEMICAL CORPORATION, priority 2022, published 2025)

Experiment: Evaluation of solubility in organic solvent
Format: physicochemical
Conditions: toluene/2-propanol mixed solvent
Method: Compounds 1 to 2 or Comparative Compounds 1 to 5 were respectively added to a mixed solvent of toluene/2-propanol=3/7 (mass ratio) at room temperature (25° C.) so as to have a concentration of 8% by mass, and stirred for 10 minutes with a rotor without heating or cooling. The state of dissolution was then visually observed, and the solubility was evaluated according to the following criteria.
When any residue was observed, the mixture was heated in a water bath at a constant temperature (40° C.) for 10 minutes as described below, and the state of dissolution was visually observed again to evaluate the solubility.

SMILES	solubility in organic solvents (in words)
C=C(C)C(=O)OCC(COC(=O)C(=C)C)OC(=O)CCC(=O)OCC(CC(C)C)N1C(=O)c2ccc3c4ccc5c6c(ccc(c7ccc(c2c37)C1=O)c64)C(=O)N(C(COC(=O)CCC(=O)OC(COC(=O)C(=C)C)COC(=O)C(=C)C)CC(C)C)C5=O (stereo not shown) [Comparative Compound 4]	excellent solubility in organic solvents
CCCCCCC(CCCCCC)N1C(=O)c2ccc3c4ccc5c6c(ccc(c7ccc(c2c37)C1=O)c64)C(=O)N(C(CCCCCC)CCCCCC)C5=O [Comparative Compound 2]	poor solubility
C=C(C)C(=O)OCC(COC(=O)C(=C)C)OC(=O)CCC(=O)OCC(COC(=O)CCC(=O)OC(COC(=O)C(=C)C)COC(=O)C(=C)C)N1C(=O)c2ccc3c4ccc5c6c(ccc(c7ccc(c2c37)C1=O)c64)C(=O)N(C(COC(=O)CCC(=O)OC(COC(=O)C(=C)C)COC(=O)C(=C)C)COC(=O)CCC(=O)OC(COC(=O)C(=C)C)COC(=O)C(=C)C)C5=O [Comparative Compound 5]	excellent solubility in organic solvents
C=CC(=O)OCCOC(=O)CCC(=O)OCC(CC(C)C)N1C(=O)c2ccc3c4ccc5c6c(ccc(c7ccc(c2c37)C1=O)c64)C(=O)N(C(COC(=O)CCC(=O)OCCOC(=O)C=C)CC(C)C)C5=O (stereo not shown) [Comparative Compound 3]	poor solubility
